Tests used:
tonic extensor seizure = assay: maximal electroshock test (MES); assay type: in vivo, mouse (albino male CRS-CD1); conditions: PO, mouse, 4 hr, read-out: % Block (MES Test, mouse)
Description: The compounds of formula (I) are particularly useful as anticonvulsant agents in mammals including humans. The anticonvulsant activity of the subject compounds was determined using a standard "maximal electroshock test" (MES). In this test, activity is indicated by a block of the […] extensor seizure caused by application of an electric shock to mice via corneal electrodes, as described by Swinyard et al. in J. Pharmacol. Expt. Ther. 1952, 106, 319, and recorded as % block. A more recent description of current anticonvulsant drug screening is given by Swinyard in Epilepsia 1978, 19, 409. The anticonvulsant activity of the compounds of this invention tested according to the Swinyard 1952 method is shown in the following Table I.
In the test, albino male CRS-CD1 mice weighing between 18-25 g were used in all experiments (obtained from Charles River). They were allowed food and water ad libitum and were used only once. The electroshock apparatus and the corneal electrodes were purchased from Wahlquist Instrument Company, Salt Lake City, Utah.
Maximal electroshock seizures were induced by the delivery of a 60 Hertz (Hz) current of 50 milliamps (mA) intensity to the mouse through corneal electrodes for 0.2 seconds as originally described by Swinyard et al. (1952). This stimulus intensity is approximately 4 to 6 times the current producing 100% tonic extensor convulsions. During the validation of the MES test, the duration of the various seizure components following maximal electroshock were measured as follows: hindleg tonic flexion was measured from the time of the application of the stimulus to the time of onset of hindleg tonic extension (i.e. when the hindlegs deviate by greater than an angle of 90° from the torso), hindleg tonic extensor was measured from the time of extensor thrust to the onset of generalized clonus, and terminal clonus was measured from the beginning to the end of bilateral rhythmic clonic jerking. Mortality was also recorded. The duration of each seizure component agreed well with the values previously reported by Tedeschi et al. in J. Pharmacol. Expt. Ther. 1955, 116, 107. The corneal electrodes were concave so that saline could be applied to the electrodes to reduce mortality. If this procedure is followed, mortality should always be less than 40% in control mice. Thus, at an electroshock stimulus of 60 Hz, 50 mA and 0.2 seconds duration, the order of convulsive components and the percentage of control animals displaying the behaviors should be as follows: tonic flexion (100%), tonic extension (100%) and clonus (100%) with less than 40% mortality.
For testing compounds, the abolition of the tonic extensor component was the endpoint. Animals were dosed orally (PO) with either vehicle or test drug and at a specified time were given a maximal electric shock through corneal electrodes blotted with saline (as described above). A minimum of 10 animals were used per group and the percentage of animals in the group without tonic hindlimb extension recorded. Determination of ED50 values (that dose of drug inhibiting 50% of the tonic extensor seizures) is shown below in Table I.

rat diuresis study = assay type: in vivo, rat (male Wistar); conditions: average of five animals; for Water Intake: control 15.0; for Urine Output: control 17.6
Text: Evidence for the inhibition of carbonic anhydrase by compounds of the formula (I) can also be obtained by a diuresis study, such as described by A. Weiner in Goodman and Gilman's The Pharmacological Basis of Therapeutics, 8th ed.; Goodman Gilman, A.; Rall, T. W.; Nies, A. S.; Taylor, P., Eds.; Pergamon Press: New York, 1990; pp 716-718. An increase in urine akalinity accompanied with an increase in water intake and urine output provides an indirect indication of carbonic anhydrase inhibition activity. Male Wistar rats having a weight of 250-300 g were dosed orally (PO) and housed in cages that allowed for the quantitative measure of fluid intake and urine output. Water intake and urine output were measured at 24 hours versus control, whereas urine pH, obtained via pH meter, was measured at 4 and 24 hours versus control. The results of this study, which are the average of five animals, are reported below in Table III. […] Such data is also an indication of the usefulness of the compounds of formula (I) as diuretics in the treatment of hypertension, congestive heart failure and other types of edema. The determination of suitable dosages for such compounds for the treatment of hypertension and congestive heart failure and other types of edema is within the skill of the art.

Total Acid Output = assay: pylorus-ligated rat test, gastric antisecretory activity; assay type: in vivo, rat (male Charles River Sprague-Dawley derived); conditions: IP, 200 mg/kg
Description: The gastric antisecretory activity of the compounds shown in Table II was determined by the pylorus-ligated rat test described by Shay et al. in Gastroenterol. 1954, 26, 906. In this method, male Charles River Sprague-Dawley derived rats weighing 150-300 grams were deprived of food but not water for 18-24 hours prior to use. Water was withheld during the experiment, however. The rats were weighed, lightly anesthetized with ether and the pylorus ligated according to the method of Shay et al., supra. The treatment or vehicle control was then administered intraperitoneally (IP) or orally (PO). When administered by the IP route, the administration was done 30 minutes before ligation. When administered by the PO route, the administration was done prior to ligation (about 1/2 to 3 hours before). Rats were housed two per cage and sacrificed with carbon dioxide 3 hours after ligation. Their stomachs were removed, rinsed, and contents emptied into a graduated centrifuge tube. The tubes were centrifuged, the volume of gastric juice was recorded, and any samples obviously contaminated by feces, food or blood were eliminated. A 1 mL aliquot of gastric juice was titrated with 0.1N NaOH to a pH of 7.0-7.4. The volume of gastric juice secreted, the acid concentration, and the product of the volume times the concentration, i.e. the total amount of acid secreted, were measured. The total acid output was calculated by multiplying the volume of gastric juices collected times the hydrogen ion concentration (amount of NaOH added to a sample to reach a pH of 7.0-7.4) and dividing that value by 10. The mean value of the total acid output for a control group of rats was then subtracted from the mean value of the total acid output for the group of rats tested at the same dose. That value was then divided by the mean value of total acid output for the control group and the resulting number was multiplied by 100 to provide a Percent Inhibition value, which values are reported in Table II. The […] was determined statistically as the dose at which a 50% inhibition would be realized.

SMILES: CC1(C)O[C@@H]2[C@H]3OS(=O)(=O)O[C@H]3CO[C@]2(COS(N)(=O)=O)O1 [Example 2, 2,3-O-(1-Methylethylidene)-4,5-O-sulfonyl-β-L-fructopyranose Sulfamate]
- responders at 75 mg/kg (tonic extensor seizure): 80%

SMILES: CNS(=O)(=O)OC[C@@]12OC[C@H]3OS(=O)(=O)O[C@H]3[C@@H]1OC(C)(C)O2 [Example 3, 2,3-O-(1-Methylethylidene)-4,5-O-sulfonyl-β-D-fructopyranose Methylsulfamate]
- Urine pH (rat diuresis study; 2.7 mg/kg PO, 4 hours, control 6.98): 9.02
- Urine pH (rat diuresis study; 2.7 mg/kg PO, 24 hours, control 6.43): 6.78
- Water Intake (rat diuresis study; 2.7 mg/kg PO, 24 hours): 23.6 mL
- Urine Output (rat diuresis study; 2.7 mg/kg PO, 24 hours): 28.8 mL
- responders at 10 mg/kg (tonic extensor seizure): 100%

SMILES: CCCCNS(=O)(=O)OC[C@@]12OC[C@H]3OS(=O)(=O)O[C@H]3[C@@H]1OC(C)(C)O2 [Example 4, 2,3-O-(1-Methylethylidene)-4,5-O-sulfonyl-β-D-fructopyranose Butylsulfamate]
- responders at 35 mg/kg (tonic extensor seizure): 100%

SMILES: CCNS(=O)(=O)OC[C@@]12OC[C@H]3OS(=O)(=O)O[C@H]3[C@@H]1OC(C)(C)O2 [Example 5, 2,3-O-(1-Methylethylidene)-4,5-O-sulfonyl-β-D-fructopyranose Ethylsulfamate]
- Urine pH (rat diuresis study; 1.2 mg/kg PO, 4 hours, control 6.98): 9.03
- Urine pH (rat diuresis study; 1.2 mg/kg PO, 24 hours, control 6.43): 6.41
- Water Intake (rat diuresis study; 1.2 mg/kg PO, 24 hours): 15.8 mL
- Urine Output (rat diuresis study; 1.2 mg/kg PO, 24 hours): 19.9 mL
- responders at 10 mg/kg (tonic extensor seizure): 100%

SMILES: CCCCCCCCNS(=O)(=O)OC[C@@]12OC[C@H]3OS(=O)(=O)O[C@H]3[C@@H]1OC(C)(C)O2 [Example 6, 2,3-O-(1-Methylethylidene)-4,5-O-sulfonyl-β-D-fructopyranose Octylsulfamate]
- responders at 75 mg/kg (tonic extensor seizure): 100%

SMILES: C=CCNS(=O)(=O)OC[C@@]12OC[C@H]3OS(=O)(=O)O[C@H]3[C@@H]1OC(C)(C)O2 [Example 7, 2,3-O-(1-Methylethylidene)-4,5-O-sulfonyl-β-D-fructopyranose 2-Propenylsulfamate]
- responders at 10 mg/kg (tonic extensor seizure): 70%

SMILES: CC1(C)O[C@H]2[C@@H]3OS(=O)(=O)O[C@@H]3CO[C@@]2(COS(=O)(=O)NCc2ccccc2)O1 [Example 8, 2,3-O-(1-Methylethylidene)-4,5-O-sulfonyl-β-D-fructopyranose Phenylmethylsulfamate]
- responders at 75 mg/kg (tonic extensor seizure): 100%

SMILES: CC1(C)O[C@H]2[C@@H]3OS(=O)(=O)O[C@@H]3CO[C@@]2(COS(=O)(=O)NC2CCC2)O1 [Example 10, 2,3-O-(1-Methylethylidene)-4,5-O-sulfonyl-β-D-fructopyranose Cyclobutylsulfamate]
- responders at 10 mg/kg (tonic extensor seizure): 90%

SMILES: CC1(C)O[C@H]2[C@@H]3OS(=O)(=O)O[C@@H]3CO[C@@]2(COS(=O)(=O)NC2CCCCCCC2)O1 [Example 11, 2,3-O-(1-Methylethylidene)-4,5-O-sulfonyl-β-D-fructopyranose Cyclooctylsulfamate]
- Percent Inhibition of Total Acid Output (Total Acid Output): 50%
- responders at 75 mg/kg (tonic extensor seizure): 30%

SMILES: CC1(C)O[C@H]2[C@@H]3OS(=O)(=O)O[C@@H]3CO[C@@]2(COS(=O)(=O)NCC(F)(F)F)O1 [Example 12, 2,3-O-(1-Methylethylidene)-4,5-O-sulfonyl-β-D-fructopyranose (2,2,2-Trifluoroethyl)sulfamate]
- responders at 10 mg/kg (tonic extensor seizure): 40%

SMILES: CN(C)S(=O)(=O)OC[C@@]12OC[C@H]3OS(=O)(=O)O[C@H]3[C@@H]1OC(C)(C)O2 [Example 13, 2,3-O-(1-Methylethylidene)-4,5-O-sulfonyl-β-D-fructopyranose Dimethylsulfamate]
- Urine pH (rat diuresis study; 2.1 mg/kg PO, 4 hours, control 6.98): 8.93
- Urine pH (rat diuresis study; 2.1 mg/kg PO, 24 hours, control 6.43): 6.81
- Water Intake (rat diuresis study; 2.1 mg/kg PO, 24 hours): 21 mL
- Urine Output (rat diuresis study; 2.1 mg/kg PO, 24 hours): 23.2 mL
- responders at 10 mg/kg (tonic extensor seizure): 70%

SMILES: CCN(CC)S(=O)(=O)OC[C@@]12OC[C@H]3OS(=O)(=O)O[C@H]3[C@@H]1OC(C)(C)O2 [Example 14, 2,3-O-(1-Methylethylidene)-4,5-O-sulfonyl-β-D-fructopyranose Diethylsulfamate]
- responders at 10 mg/kg (tonic extensor seizure): 10%

SMILES: CC1(C)O[C@H]2[C@@H]3O[S@@](=O)O[C@@H]3CO[C@@]2(COS(N)(=O)=O)O1 [Example 16, (S)-2,3-O-(1-Methylethylidene)-4,5 -O-sulfinyl-β-D-fructopyranose Sulfamate]
- responders at 75 mg/kg (tonic extensor seizure): 40%

SMILES: CC1(C)O[C@H]2[C@@H]3O[S@](=O)O[C@@H]3CO[C@@]2(COS(N)(=O)=O)O1 [Example 17, (R)-2,3-O-(1-Methylethylidene)-4,5-O-sulfinyl-β-D-fructopyranose Sulfamate]
- responders at 35 mg/kg (tonic extensor seizure): 90%

SMILES: CCC1(CC)O[C@H]2[C@@H]3OS(=O)(=O)O[C@@H]3CO[C@@]2(COS(N)(=O)=O)O1 [Example 18, 2,3-O-(1-Ethylpropylidene)-4,5-O-sulfonyl-β-D-fructopyranose Sulfamate]
- responders at 75 mg/kg (tonic extensor seizure): 100%

SMILES: Cc1ccc(S(=O)(=O)N=S2O[C@@H]3[C@@H](CO[C@@]4(COS(N)(=O)=O)OC(C)(C)O[C@@H]34)O2)cc1 (stereo partly drawn) [Example 19, 2,3-O-(1-Methylethylidene)-4,5-O-[N-(4-methylbenzenesulfonyl)imidosulfinyl]-β-D-fructopyranose Sulfamate]
- responders at 300 mg/kg (tonic extensor seizure): 80%

SMILES: Cc1ccc(S(=O)(=O)N=S2(=O)O[C@@H]3[C@@H](CO[C@@]4(COS(N)(=O)=O)OC(C)(C)O[C@@H]34)O2)cc1 (stereo partly drawn) [Example 20, 2,3-O-(1-Methylethylidene)-4,5-O-[N-(4-methylbenzenesulfonyl)imidosulfonyl]-β-D-fructopyranose Sulfamate]
- responders at 300 mg/kg (tonic extensor seizure): 75%

SMILES: NS(=O)(=O)OC[C@@]12OC[C@H]3OS(=O)(=O)O[C@H]3[C@@H]1OC1(CCCCC1)O2 [Example 21, 2,3-O-(Cyclohexylidene)-4,5-O-sulfonyl-β-D-fructopyranose Sulfamate]
- Percent Inhibition of Total Acid Output (Total Acid Output): 27%
